Laboratory results published in PMC11378298 (ACS Chemical Neuroscience, 2024).

Experiments:
[1] = PAMPA; for permeability classification: versus caffeine
BV-2 cell line [2] = assay: TNF-α release in LPS-treated BV-2 cells (LANCE Ultra TR-FRET); type: cell-based, mouse; settings: compound 10 μM; LPS 100 ng/mL
Procedure: (§1) Cell viability was determined by Presto Blue assay after 24 h. (B) Effect of compounds 11, 34, and 36 (0.1, 1, 10 μM) on NO-release (%) in LPS-treated (100 ng/mL) BV-2 cell line. NO-release was measured using a fluorometric assay with 2,3-diaminonaphthalene (DAN). (C, D) Effects of compounds 11 and 36 (0.1, 1, 10 μM) on IL-6 and TNF-α release in LPS-treated (100 ng/mL) BV-2 cell line. The IL-6 and TNF-α levels were measured using LANCE Ultra TR-FRET Detection Kit (PerkinElmer). Statistical analysis was performed using GraphPad Prism 9.0.0. All values are expressed as mean with SD. Differences among groups were evaluated by one-way ANOVA followed by posthoc analysis (Dunnett’s multiple comparison tests) vs. control group (LPS on BV-2 cells and okadaic acid on HT-22 cells) and were considered statistically significant if p < 0.05 (*p < 0.05, **p < 0.01, ***p < 0.001, and ****p < 0.0001). […]
(§2) The IL-6 and TNF-α levels in the culture supernatants were measured using LANCE Ultra TR-FRET Detection Kit (PerkinElmer), according to manufacturer protocol. […] After 1 h of incubation of IL-6 and 3h for incubation of TNF-α in the dark, at 22 °C, the plates were read with an EnVision plate reader (PerkinElmer) with the excitation wavelength at 320 nm, the donor emission at 615 nm, and the acceptor emission at 660 nm. […]

CYP3A4 = CYP3A4 (Homo sapiens, UniProt P08684); settings: for CYP3A4 activity at 0.1 µM / CYP3A4 activity at 1 µM / CYP3A4 activity at 10 µM / CYP3A4 activity at 25 µM: ± SD
Text: (§3) Interactions with cytochrome enzymes are significant contributors to drug–drug interactions (DDIs), a crucial concern for patients who are on multiple medications. We determined the compounds’ influence on the most important CYP isoforms 3A4, 2D6, and 2C9, using the CYP450 inhibition luminescence assay from Promega (for details see Figures S23–S25 and Table S11 in the SI).
(§4) All protocols used for the evaluation of drug-like properties (ADME-To parameters) were described in our previous works.[58],[89] Precoated PAMPA Plate System Gentest was obtained from Corning, (Tewksbury, MA, USA). The metabolic stability assay was performed on human liver microsomes (HLMs, Sigma-Aldrich, St. Louis, MO, USA). The assays with microsomes were supported by MetaSite 6.0.1 software (Molecular Discovery Ltd. Hertfordshire, UK). To predict potential drug–drug interactions (DDIs) the influence on CYP3A4, CYP2D6, and CYP2C9 were carried with use of respective P450-Glo kit (Promega, Madison, WI, USA). The luminescence signal and absorbance were measured by using a microplate reader EnSpire PerkinElmer (Waltham, MA, USA). The LC/MS/MS analyses used in PAMPA and the assays with use of HLMs were obtained on Waters ACQUITY TQD system (Waters, Milford, CT, USA). […] Statistical significances and IC50 values were calculated by Graph Pad Prism 9 software. […]

CYP2C9 = CYP2C9 (Homo sapiens, UniProt P11712); settings: for CYP2C9 activity at 0.1 µM / CYP2C9 activity at 1 µM / CYP2C9 activity at 10 µM / CYP2C9 activity at 25 µM: ± SD
Text: as §3, §4

CYP2D6 = CYP2D6 (Homo sapiens, UniProt P10635); settings: for CYP2D6 activity at 0.1 µM / CYP2D6 activity at 1 µM / CYP2D6 activity at 10 µM / CYP2D6 activity at 25 µM: ± SD
Text: as §3, §4

BV-2 cell line [3] = assay: IL-6 release in LPS-treated BV-2 cells (LANCE Ultra TR-FRET); type: cell-based, mouse; settings: compound 10 μM; LPS 100 ng/mL
Procedure: as §1, §2

Sequence of CYP2D6 (P10635 whole entry): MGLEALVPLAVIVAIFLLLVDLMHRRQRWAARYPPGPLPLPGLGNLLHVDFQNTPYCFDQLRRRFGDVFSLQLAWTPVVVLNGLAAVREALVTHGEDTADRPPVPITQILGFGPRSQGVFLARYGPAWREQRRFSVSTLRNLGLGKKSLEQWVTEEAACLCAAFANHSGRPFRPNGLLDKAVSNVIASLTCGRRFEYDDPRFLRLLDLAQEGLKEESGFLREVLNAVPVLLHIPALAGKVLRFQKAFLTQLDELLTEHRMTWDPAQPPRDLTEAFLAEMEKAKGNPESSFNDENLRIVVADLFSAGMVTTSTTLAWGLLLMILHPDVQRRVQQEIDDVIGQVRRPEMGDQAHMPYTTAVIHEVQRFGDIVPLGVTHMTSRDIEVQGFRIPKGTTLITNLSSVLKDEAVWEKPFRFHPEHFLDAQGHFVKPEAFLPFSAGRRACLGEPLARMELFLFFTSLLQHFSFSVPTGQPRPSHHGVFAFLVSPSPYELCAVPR
Sequence of CYP3A4 (P08684 whole entry, canonical isoform): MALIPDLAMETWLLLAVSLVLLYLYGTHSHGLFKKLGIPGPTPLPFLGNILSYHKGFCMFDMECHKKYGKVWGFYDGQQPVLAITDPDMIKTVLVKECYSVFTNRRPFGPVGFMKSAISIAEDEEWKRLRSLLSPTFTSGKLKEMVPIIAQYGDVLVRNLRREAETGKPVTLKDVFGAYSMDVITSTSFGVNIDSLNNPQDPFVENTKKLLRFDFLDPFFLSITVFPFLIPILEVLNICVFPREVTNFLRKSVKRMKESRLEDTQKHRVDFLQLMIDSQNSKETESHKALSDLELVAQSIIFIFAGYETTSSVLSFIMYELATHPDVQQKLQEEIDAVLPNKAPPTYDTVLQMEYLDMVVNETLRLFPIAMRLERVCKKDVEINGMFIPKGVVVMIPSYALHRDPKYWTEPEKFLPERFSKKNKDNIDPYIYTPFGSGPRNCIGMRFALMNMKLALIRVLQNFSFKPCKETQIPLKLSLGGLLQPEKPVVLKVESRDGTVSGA
Sequence of CYP2C9 (P11712 whole entry): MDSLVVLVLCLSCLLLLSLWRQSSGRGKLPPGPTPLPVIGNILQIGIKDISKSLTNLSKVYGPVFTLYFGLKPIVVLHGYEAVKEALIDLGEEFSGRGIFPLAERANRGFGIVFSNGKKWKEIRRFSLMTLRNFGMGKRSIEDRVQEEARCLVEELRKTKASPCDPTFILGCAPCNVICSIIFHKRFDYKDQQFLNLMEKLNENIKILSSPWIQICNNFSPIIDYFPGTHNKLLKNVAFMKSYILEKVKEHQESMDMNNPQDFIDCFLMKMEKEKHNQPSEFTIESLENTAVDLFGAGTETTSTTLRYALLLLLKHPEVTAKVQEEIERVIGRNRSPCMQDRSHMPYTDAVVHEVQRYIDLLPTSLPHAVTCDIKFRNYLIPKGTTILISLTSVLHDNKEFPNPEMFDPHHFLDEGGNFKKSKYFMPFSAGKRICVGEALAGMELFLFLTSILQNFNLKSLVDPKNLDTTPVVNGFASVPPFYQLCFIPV

SMILES | permeability classification [1] | TNF-α release (BV-2 cell line [2]) | effect on CYP3A4 (CYP3A4) | CYP3A4 activity at 0.1 µM (CYP3A4) | CYP3A4 activity at 1 µM (CYP3A4) | CYP3A4 activity at 10 µM (CYP3A4) | CYP3A4 activity at 25 µM (CYP3A4) | effect on CYP2C9 (CYP2C9) | CYP2C9 activity at 0.1 µM (CYP2C9) | CYP2C9 activity at 1 µM (CYP2C9) | CYP2C9 activity at 10 µM (CYP2C9) | CYP2C9 activity at 25 µM (CYP2C9) | CYP2D6 activity at 0.1 µM (CYP2D6) | CYP2D6 activity at 1 µM (CYP2D6) | CYP2D6 activity at 10 µM (CYP2D6) | CYP2D6 activity at 25 µM (CYP2D6) | effect on CYP2D6 (CYP2D6; any tested concentration) | IL-6 release (BV-2 cell line [3]) | Pe ([1]; unit not given) | interactions with CYP isoform 2C9 (CYP2C9; up to 25 μM)
NC(=O)N1CC=C(c2ccnc(NC(=O)C3CC3)c2)C1 [Compound 11, 3-(2-(Cyclopropanecarboxamido)pyridin-4-yl)-2,5-dihydro-1H-pyrrole-1-carboxamide] | might not penetrate through the biological membranes | significantly reducing the release | inhibitory effect | 103.8 ± 5.9 % of control | 100.1 ± 17.6 % of control | 94.2 ± 17.5 % of control | 76.4 ± 2.9 % of control | inhibitory effect | 103.9 ± 7.0 % of control | 105.2 ± 7.4 % of control | 89.8 ± 4.7 % of control | 69.7 ±3.04 % of control | 91.2 ± 1.7 % of control | 93.0 ± 6.0 % of control | 95.2 ± 6.2 % of control | 97.4 ± 14.8 % of control | no effect | significantly reducing the release | – | –
O=C(Nc1cc(-c2ccc(-c3ncon3)s2)ccn1)C1CC1 [Compound 36, N-(4-(5-(1,2,4-Oxadiazol-3-yl)thiophen-2-yl)pyridin-2-yl)cyclopropanecarboxamide] | well permeable | significantly reducing the release | inhibitory effect | 104.8 ± 3.4 % of control | 103.6 ± 11.0 % of control | 84.6 ± 15.1 % of control | 65.3 ± 11.9 % of control | inhibitory effect | 109.5 ± 17.0 % of control | 114.1 ± 14.9 % of control | 95.2 ± 7.5 % of control | 59.8 ± 11.5 % of control | 98.4 ± 10.8 % of control | 98.1 ± 12.7 % of control | 100.4 ± 20.8 % of control | 102.8 ± 15.0 % of control | – | significantly reducing the release | 9.4 | lacked significant interactions
